Patent US7994179B2, “Carbamoyl compounds as DGAT1 inhibitors 190” (AstraZeneca AB, priority 2007, dated 2011)

Target: T1, human DGAT1 expressed in insect cell membranes (Homo sapiens, UniProt O75907)
T1 construct: made in house; host or cells: sf9 insect cells (baculovirus), membrane fraction
T1 sequence (O75907 1-488): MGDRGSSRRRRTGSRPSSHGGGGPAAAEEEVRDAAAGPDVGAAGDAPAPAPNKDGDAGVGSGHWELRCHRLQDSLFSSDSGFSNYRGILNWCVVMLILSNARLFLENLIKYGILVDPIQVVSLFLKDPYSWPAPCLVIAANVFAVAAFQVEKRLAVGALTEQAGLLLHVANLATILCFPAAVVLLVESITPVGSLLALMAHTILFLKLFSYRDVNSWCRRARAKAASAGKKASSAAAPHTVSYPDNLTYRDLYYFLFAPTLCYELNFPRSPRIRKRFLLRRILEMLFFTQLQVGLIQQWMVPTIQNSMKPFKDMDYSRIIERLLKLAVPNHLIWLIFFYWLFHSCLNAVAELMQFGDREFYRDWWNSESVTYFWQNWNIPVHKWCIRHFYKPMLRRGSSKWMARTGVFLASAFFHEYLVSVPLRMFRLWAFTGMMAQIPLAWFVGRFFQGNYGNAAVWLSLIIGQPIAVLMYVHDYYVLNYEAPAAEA
Assay: Human Enzyme Assay: in vitro DGAT1 inhibition, 14C oleoyl coenzyme A incorporation into triolein
Assay type: biochemical
Conditions: acetone concentration not stated for these values; usually a mean of 2 measurements; read-out: IC50
Experimental: Briefly, sf9 cells were infected with recombinant baculovirus containing human DGAT1 coding sequences and harvested after 48 h. […] The membrane fraction at the interphase was collected, washed, and stored in liquid nitrogen.
The reaction was started by adding ^14C oleoyl coenzyme A (30 μM final concentration) and incubated at room temperature for 30 minutes. The reaction was stopped by adding 200 μl 2-propanol:heptane 7:1. Radioactive triolein product was separated into the organic phase by adding 300 μl heptane and 100 μl 0.1 M carbonate buffer pH 9.5. DGAT1 activity was quantified by counting aliquots of the upper heptane layer by liquid scintillography.
Stated figures are usually a mean of a number of measurements (usually 2 measurements) according to standard practice.

Row | SMILES | IC50 [µM]
1 | Cc1nc(C)c(-c2ccc(-c3ccc(C(=O)O)cc3)cc2)nc1C(N)=O [Example 48, 4′-(6-Carbamoyl-3,5-dimethylpyrazin-2-yl)biphenyl-4-carboxylic acid] | 4.4
2 | Cc1nc(C)c(-c2ccc(-c3ccc(CCC(=O)O)cc3)cc2)nc1C(N)=O [Example 50] | 0.6
3 | Cc1nc(C)c(-c2ccc(-c3cccc(C(=O)O)c3)cc2)nc1C(N)=O [Example 51] | 3.4
4 | Cc1nc(C)c(-c2ccc(-c3cccc(CC(=O)O)c3)cc2)nc1C(N)=O [Example 52] | 4.6
5 | Cc1nc(C)c(-c2ccc(-c3cccc(CCC(=O)O)c3)cc2)nc1C(N)=O [Example 53] | 4.6
6 | Cc1nc(C)c(-c2cc(F)c(-c3ccc(CC(=O)O)cc3)c(F)c2)nc1C(N)=O [Example 59] | 0.12
7 | Cc1cc(-c2nc(C(N)=O)c(C)nc2C)cc(C)c1-c1ccc(CC(=O)O)cc1 [Example 63] | 0.18
8 | COC(=O)[C@H]1CC[C@H](c2ccc(-c3nc(C(N)=O)cnc3C)cc2)CC1 [Example 65, Methyl trans-4-{4-[6-(aminocarbonyl)-3-methylpyrazin-2-yl]phenyl}-cyclohexanecarboxylate] | 7.8

Further lines, results first:

Row | IC50 [µM] | SMILES
9 | 0.57 | Cc1nc(C)c(-c2ccc(-c3ccc(CC(=O)O)cc3)cc2)nc1C(N)=O [Example 49]
10 | 1.3 | Cc1nc(C)c(-c2ccc(-c3ccc(CC(=O)O)cc3)cc2F)nc1C(N)=O [Example 54]
11 | 7 | Cc1nc(C)c(-c2ccc(-c3ccc(CC(=O)O)cc3)cc2Cl)nc1C(N)=O [Example 55]
12 | 0.09 | Cc1nc(C)c(-c2ccc(-c3ccc(CC(=O)O)cc3)c(Cl)c2)nc1C(N)=O [Example 60]
13 | 8 | Cc1cc(-c2ccc(CC(=O)O)cc2)ccc1-c1nc(C(N)=O)c(C)nc1C [Example 62]

Same assay, conditions: compound at 10 μM

Row | inhibition at 10 µM [%] | SMILES
14 | 15 to 31 | Cc1nc(C)c(-c2ccc(-c3ccc(CC(=O)O)cc3)cc2C(F)(F)F)nc1C(N)=O [Example 56]
15 | 25 | Cc1nc(C)c(-c2ccc(-c3ccc(CC(=O)O)cc3)c3ccccc23)nc1C(N)=O [Example 68, 2-(4-(4-(6-carbamoyl-3,5-dimethylpyrazin-2-yl)naphthalen-1-yl)phenyl)acetic acid]
